Test results reported in US20240383875A1, “Benzimidazole Pyridine Derivatives” (Hoffmann-La Roche Inc., priority 2022, published 2024).

Key:
Assay type in all cases: biochemical
SIK3 = SIK3 (Homo sapiens, UniProt Q9Y2K2); test: Enzymatic activity assay SIK3, RapidFire mass spectrometry (phosphorylation of CHK-peptide); conditions: RapidFire MS, inhibition of SIK3; read-out: SIK3 RF IC50
Method: (§1) Assay description SIK1-3, RapidFire:
(§2) In the presence of SIK2 (resp. SIK1 or SIK3) and ATP the CHK-peptide ([…] with C-terminal arginine amide modification) were phosphorylated at one of the four feasible serine's. Only one phosphorylation is observed under the assay conditions. 60 nl of each compound dilution series (12 point; dilution factor 3, generally 30 μM to 170 pM) in DMSO were transferred by acoustic dispensing to the assay plate and 30 min pre-incubated (ambient temperature) after the addition of 5 μl SIK1 (5 nM) resp. 5 μl SIK2 (0.5 nM) or 7 μl SIK3 (1.5 nM) in assay-buffer (12.5 mM HEPES (pH 7.0), 10 mM magnesium acetate, 0.005% BSA). 10 μM CHK-peptide solution and 5 μl 100 μM ATP for SIK1 & SIK2 resp. 3 μl for SIK3 in assay-buffer were added and incubated ambient for 45 min. 40 μl 0.125% formic acid in water were added to quench the reaction. RapidFire (RF) Mass Spectrometry was utilized for data generation as described below. The multiple charged species (3-5 charges) for the phosphorylated and non-phosphorylated form measured by MRM (Multiple Reaction Monitoring; API5000 or 6500+) or EIC (Extracted Ion Current; QToF) were summed up and the ratio calculated (sum phosphorylated species/sum all species) for data evaluation. Normalization was performed by Genedata software based on the non-inhibition control DMSO and the commercially available SIK inhibitor @ 1 μM YKL-05-099 (CAS number 1936529-65-5). The results of the assay are expressed in half-maximal inhibitory concentrations (IC50s) and are summarized below in Table 1.
(§3) Samples were aspirated by vacuum for max. 600 ms and loaded to C4-cartridge (Agilent; #G9203A) for 3000 ms@1.5 ml/min with 0.1% formic acid in water. Afterwards samples were transferred to the APT5000 (APT6500+) or QToF mass spectrometer for 4000 ms@1.25 ml/min with 90% acetonitrile; 10% water; 0.007% TFA; 0.093 formic acid. The cartridge was reconditioned for additional 500 ms with 0.1% formic acid in water
(§4) All MS analyses using the following MS-setup in MRM mode: Electrospray positive; Ion Spray Voltage: 4000V; Temperature: 550° C.; Collision Gas: 5; Curtain Gas: 15; Gas1: 40; Gas 2: 42; EP: 10
(§5) MS-Setup Agilent QToF 6545
(§6) All MS analyses using the following MS-setup in Mode MS: Dual AJS Electrospray positive; VCap: 3000V; Drying & Sheath gas: 340° C.@81/min; Nebulizer: 60 psig; Nozzle Voltage: 2000V; Fragmentor: 130V; Skimmer: 35V; Oct1 RF Vpp: 700V; Ref masses on@5spectra/s

SIK2 = SIK2 (Homo sapiens, UniProt Q9H0K1); test: Enzymatic activity assay SIK2, RapidFire mass spectrometry (phosphorylation of CHK-peptide); conditions: RapidFire MS, inhibition of SIK2; read-out: SIK2 RF IC50
Chain of SIK2 (Q9H0K1 whole entry): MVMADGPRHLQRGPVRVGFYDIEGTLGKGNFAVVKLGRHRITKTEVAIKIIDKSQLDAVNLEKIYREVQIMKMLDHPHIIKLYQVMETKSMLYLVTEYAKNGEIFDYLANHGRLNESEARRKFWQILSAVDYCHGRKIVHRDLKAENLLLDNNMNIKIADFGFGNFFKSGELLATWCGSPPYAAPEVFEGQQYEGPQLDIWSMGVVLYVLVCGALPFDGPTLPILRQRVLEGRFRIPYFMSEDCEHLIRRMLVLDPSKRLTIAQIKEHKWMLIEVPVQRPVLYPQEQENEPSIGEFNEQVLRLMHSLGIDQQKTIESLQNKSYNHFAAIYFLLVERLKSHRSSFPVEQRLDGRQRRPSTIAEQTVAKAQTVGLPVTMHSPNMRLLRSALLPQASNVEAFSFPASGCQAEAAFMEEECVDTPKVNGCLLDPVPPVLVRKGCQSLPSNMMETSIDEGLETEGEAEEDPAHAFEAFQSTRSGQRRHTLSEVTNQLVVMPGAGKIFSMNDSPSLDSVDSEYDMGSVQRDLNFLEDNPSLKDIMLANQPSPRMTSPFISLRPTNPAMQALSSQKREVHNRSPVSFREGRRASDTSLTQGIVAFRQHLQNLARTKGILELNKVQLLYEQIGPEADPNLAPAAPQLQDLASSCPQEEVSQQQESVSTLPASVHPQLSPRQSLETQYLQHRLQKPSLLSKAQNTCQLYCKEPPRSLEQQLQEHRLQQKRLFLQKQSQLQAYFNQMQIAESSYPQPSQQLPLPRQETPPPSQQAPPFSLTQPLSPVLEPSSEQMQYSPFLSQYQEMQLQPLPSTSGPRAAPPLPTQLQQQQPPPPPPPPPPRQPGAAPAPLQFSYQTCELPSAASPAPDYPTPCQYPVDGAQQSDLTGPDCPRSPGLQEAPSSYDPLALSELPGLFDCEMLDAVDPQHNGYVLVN
Method: as §1
as §2, with “Only one phosphorylation is observed under the assay conditions. 60 nl of each compound dilution series (12 point; dilution factor 3, generally 30 μM to 170 pM) in DMSO were transferred by acoustic dispensing to the assay plate and 30 min pre-incubated (ambient temperature) after the addition of 5 μl SIK1 (5 nM) resp.” left out, “1936529-65-5).” for “1936529-65-5). The results of the assay are expressed in half-maximal inhibitory concentrations (IC50s) and are summarized below in Table 1.”
as §3, §4, §5, §6

SIK1 = SIK1 (Homo sapiens, UniProt P57059); test: Enzymatic activity assay SIK1, RapidFire mass spectrometry (phosphorylation of CHK-peptide); conditions: RapidFire MS, inhibition of SIK1; read-out: SIK1 RF IC50
Chain of SIK1 (P57059 whole entry): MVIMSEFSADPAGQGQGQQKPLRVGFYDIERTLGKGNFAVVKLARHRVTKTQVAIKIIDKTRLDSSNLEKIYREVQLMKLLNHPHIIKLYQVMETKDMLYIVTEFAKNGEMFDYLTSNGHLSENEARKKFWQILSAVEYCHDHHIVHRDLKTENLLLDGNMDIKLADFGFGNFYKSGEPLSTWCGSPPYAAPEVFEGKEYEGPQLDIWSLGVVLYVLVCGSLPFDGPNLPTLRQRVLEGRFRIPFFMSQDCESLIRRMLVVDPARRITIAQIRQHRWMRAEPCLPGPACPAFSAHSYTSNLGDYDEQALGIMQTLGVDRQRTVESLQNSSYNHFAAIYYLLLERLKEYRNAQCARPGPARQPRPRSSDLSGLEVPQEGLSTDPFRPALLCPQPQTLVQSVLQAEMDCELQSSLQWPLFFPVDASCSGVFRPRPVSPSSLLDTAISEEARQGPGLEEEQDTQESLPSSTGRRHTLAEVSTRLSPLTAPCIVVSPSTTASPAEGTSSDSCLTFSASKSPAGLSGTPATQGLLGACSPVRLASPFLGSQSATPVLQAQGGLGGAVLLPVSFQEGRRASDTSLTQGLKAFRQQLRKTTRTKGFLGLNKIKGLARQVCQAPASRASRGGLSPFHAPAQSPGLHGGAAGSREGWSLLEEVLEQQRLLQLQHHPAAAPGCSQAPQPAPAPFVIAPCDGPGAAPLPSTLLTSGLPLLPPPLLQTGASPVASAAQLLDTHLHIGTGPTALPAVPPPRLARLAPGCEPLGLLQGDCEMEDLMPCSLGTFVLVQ
Method: as §1, §2, §3, §4, §5, §6

Chain of SIK3 (Q9Y2K2 whole entry): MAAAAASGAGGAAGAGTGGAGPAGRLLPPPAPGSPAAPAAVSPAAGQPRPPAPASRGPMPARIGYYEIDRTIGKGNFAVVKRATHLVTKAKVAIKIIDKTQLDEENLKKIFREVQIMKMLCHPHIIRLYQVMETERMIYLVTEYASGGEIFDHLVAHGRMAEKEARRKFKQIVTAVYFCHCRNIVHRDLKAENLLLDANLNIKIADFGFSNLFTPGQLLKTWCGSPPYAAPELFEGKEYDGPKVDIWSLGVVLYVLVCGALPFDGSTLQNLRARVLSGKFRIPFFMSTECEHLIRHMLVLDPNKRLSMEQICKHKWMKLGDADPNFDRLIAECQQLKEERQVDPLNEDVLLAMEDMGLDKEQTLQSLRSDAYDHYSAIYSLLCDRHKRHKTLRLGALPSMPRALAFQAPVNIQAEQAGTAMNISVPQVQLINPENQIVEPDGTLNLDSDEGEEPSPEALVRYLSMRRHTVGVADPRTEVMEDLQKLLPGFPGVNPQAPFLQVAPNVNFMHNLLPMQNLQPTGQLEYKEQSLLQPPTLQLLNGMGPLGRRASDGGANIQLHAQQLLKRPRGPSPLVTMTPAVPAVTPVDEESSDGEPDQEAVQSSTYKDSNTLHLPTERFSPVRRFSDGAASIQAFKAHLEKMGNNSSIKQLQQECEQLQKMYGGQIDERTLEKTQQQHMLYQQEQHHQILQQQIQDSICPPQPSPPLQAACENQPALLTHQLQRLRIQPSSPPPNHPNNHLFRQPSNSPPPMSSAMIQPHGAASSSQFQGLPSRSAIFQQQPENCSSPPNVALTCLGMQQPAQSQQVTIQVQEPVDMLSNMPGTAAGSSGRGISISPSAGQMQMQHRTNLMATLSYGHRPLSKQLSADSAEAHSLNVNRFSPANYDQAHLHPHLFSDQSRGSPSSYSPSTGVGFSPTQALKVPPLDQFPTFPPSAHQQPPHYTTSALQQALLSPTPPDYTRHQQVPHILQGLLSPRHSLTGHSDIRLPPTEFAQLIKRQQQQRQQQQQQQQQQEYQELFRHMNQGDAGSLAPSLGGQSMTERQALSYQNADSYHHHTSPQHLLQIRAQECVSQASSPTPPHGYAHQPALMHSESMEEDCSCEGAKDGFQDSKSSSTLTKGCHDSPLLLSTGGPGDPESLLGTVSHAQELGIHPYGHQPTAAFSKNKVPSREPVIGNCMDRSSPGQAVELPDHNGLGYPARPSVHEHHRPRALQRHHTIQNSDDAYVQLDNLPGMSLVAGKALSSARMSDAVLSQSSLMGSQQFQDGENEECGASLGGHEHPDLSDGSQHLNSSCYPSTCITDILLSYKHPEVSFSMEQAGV

Row | Structure (SMILES) | IC50 (SIK3) | IC50 (SIK2) | IC50 (SIK1)
1 | Cc1ccc(Oc2ccc3c(c2)ncn3-c2ccc(C(C)O)c(-n3nc(C#N)cc3C)n2)nn1 (stereo not drawn) [Example 75, 1-[3-(1-Hydroxyethyl)-6-[5-(6-methylpyridazin-3-yl)oxybenzimidazol-1-yl]-2-pyridyl]-5-methyl-pyrazole-3-carbonitrile] | 6.3 nM | 38.4 nM | 1440 nM
2 | Cc1ccc(Nc2ccc3c(c2)ncn3-c2ccc(C(C)O)c(-c3c(C#N)cnn3C)n2)nn1 (stereo not drawn) [Example 76, 5-[3-(1-Hydroxyethyl)-6-[5-[(6-methylpyridazin-3-yl)amino]benzimidazol-1-yl]-2-pyridyl]-1-methyl-pyrazole-4-carbonitrile] | 66.2 nM | 327 nM | 7390 nM
3 | Cc1cc(C#N)nn1-c1nc(-n2cnc3cc(N4CC[C@@H](O)C4)ccc32)ccc1C(C)O (stereo partly drawn) [Example 77, 1-[3-(1-Hydroxyethyl)-6-[5-[(3R)-3-hydroxypyrrolidin-1-yl]benzimidazol-1-yl]-2-pyridyl]-5-methyl-pyrazole-3-carbonitrile; formic acid] | 15.7 nM | 10.1 nM | 28 nM
4 | Cc1cc(C#N)nn1-c1nc(-n2cnc3cc(N4CC[C@H](O)C4)ccc32)ccc1C(C)O (stereo partly drawn) [Example 78, 1-[3-(1-hydroxyethyl)-6-[5-[(3S)-3-hydroxypyrrolidin-1-yl]benzimidazol-1-yl]-2-pyridyl]-5-methyl-pyrazole-3-carbonitrile; formic acid] | 20.4 nM | 11.4 nM | 33 nM
5 | Cc1ccc(Nc2ccc3c(c2)ncn3-c2ccc(C(C)O)c(-n3nc(C#N)cc3C)n2)cn1 (stereo not drawn) [Example 81, 1-[3-(1-Hydroxyethyl)-6-[5-[(6-methyl-3-pyridyl)amino]benzimidazol-1-yl]-2-pyridyl]-5-methyl-pyrazole-3-carbonitrile] | 0.8 nM | 2.3 nM | 9 nM
6 | Cc1cnc(Nc2ccc3c(c2)ncn3-c2ccc(C(C)O)c(-n3nc(C#N)cc3C)n2)cn1 (stereo not drawn) [Example 82, 1-[3-(1-Hydroxyethyl)-6-[5-[(5-methylpyrazin-2-yl)amino]benzimidazol-1-yl]-2-pyridyl]-5-methyl-pyrazole-3-carbonitrile] | 2.4 nM | 2.2 nM | 5 nM
7 | Cc1cnc(Nc2ccc3c(c2)ncn3-c2ccc(C(C)O)c(-n3nc(C#N)cc3C)n2)nc1 (stereo not drawn) [Example 83, 1-[3-(1-Hydroxyethyl)-6-[5-[(5-methylpyrimidin-2-yl)amino]benzimidazol-1-yl]-2-pyridyl]-5-methyl-pyrazole-3-carbonitrile] | 1.8 nM | 1.5 nM | 2 nM
8 | Cc1ccc(Nc2ccc3c(c2)ncn3-c2ccc(C(C)O)c(-n3nc(C#N)cc3C)n2)nc1 (stereo not drawn) [Example 84, 1-[3-(1-hydroxyethyl)-6-[5-[(5-methyl-2-pyridyl)amino]benzimidazol-1-yl]-2-pyridyl]-5-methyl-pyrazole-3-carbonitrile] | 2.1 nM | 5.3 nM | 7 nM
9 | Cc1ccc(Nc2ccc3c(c2)ncn3-c2ccc(C(C)O)c(N3CCCS3(=O)=O)n2)nn1 (stereo not drawn) [Example 85, 1-[2-(1,1-dioxo-1,2-thiazolidin-2-yl)-6-[5-[(6-methylpyridazin-3-yl)amino]benzimidazol-1-yl]-3-pyridyl]ethanol] | 1910 nM | 818 nM | 1070 nM
10 | Cc1ncc(Nc2ccc3c(c2)ncn3-c2ccc(C(C)O)c(-n3nc(C#N)cc3C)n2)cn1 (stereo not drawn) [Example 86, 1-[3-(1-Hydroxyethyl)-6-[5-[(2-methylpyrimidin-5-yl)amino]benzimidazol-1-yl]-2-pyridyl]-5-methyl-pyrazole-3-carbonitrile] | 1.5 nM | 6 nM | 62 nM
11 | Cc1cc(C#N)nn1-c1nc(-n2cnc3cc(Nc4ccnnc4)ccc32)ccc1C(C)O (stereo not drawn) [Example 87, 1-[3-(1-Hydroxyethyl)-6-[5-(pyridazin-4-ylamino)benzimidazol-1-yl]-2-pyridyl]-5-methyl-pyrazole-3-carbonitrile] | 2.9 nM | 9.6 nM | 22 nM
12 | COc1ccc(Nc2ccc3c(c2)ncn3-c2ccc(C(C)O)c(-n3nc(C#N)cc3C)n2)nn1 (stereo not drawn) [Example 88, 1-[3-(1-Hydroxyethyl)-6-[5-[(6-methoxypyridazin-3-yl)amino]benzimidazol-1-yl]-2-pyridyl]-5-methyl-pyrazole-3-carbonitrile] | 0.8 nM | 2.2 nM | 62 nM
13 | Cc1cc(C#N)nn1-c1nc(-n2cnc3cc(Nc4cccnn4)ccc32)ccc1C(C)O (stereo not drawn) [Example 89, 1-[3-(1-Hydroxyethyl)-6-[5-(pyridazin-3-ylamino)benzimidazol-1-yl]-2-pyridyl]-5-methyl-pyrazole-3-carbonitrile] | 0.7 nM | 1.2 nM | 95 nM
14 | Cc1cc(C#N)nn1-c1nc(-n2cnc3cc(Nc4ccc(C(F)F)nn4)ccc32)ccc1C(C)O (stereo not drawn) [Example 90, 1-[6-[5-[[6-(Difluoromethyl)pyridazin-3-yl]amino]benzimidazol-1-yl]-3-(1-hydroxyethyl)-2-pyridyl]-5-methyl-pyrazole-3-carbonitrile] | 0.5 nM | 0.9 nM | 53 nM
15 | Cc1ccc(Nc2cc3ncn(-c4ccc(C(C)O)c(-n5nc(C#N)cc5C)n4)c3cc2F)nn1 (stereo not drawn) [Example 93, 1-[6-[6-Fluoro-5-[(6-methylpyridazin-3-yl)amino]benzimidazol-1-yl]-3-(1-hydroxyethyl)-2-pyridyl]-5-methyl-pyrazole-3-carbonitrile] | 0.6 nM | 0.5 nM | 97 nM
16 | Cc1ccc(Nc2cc3c(cc2F)ncn3-c2ccc(C(C)O)c(-n3nc(C#N)cc3C)n2)nn1 (stereo not drawn) [Example 94, 1-[6-[5-Fluoro-6-[(6-methylpyridazin-3-yl)amino]benzimidazol-1-yl]-3-(1-hydroxyethyl)-2-pyridyl]-5-methyl-pyrazole-3-carbonitrile] | 54.9 nM | 16.6 nM | 24 nM
17 | Cc1ccc(Nc2ccc3c(c2)ncn3-c2ccc(C(C)O)c(-n3nc(C(F)(F)F)c4c3CCNC4)n2)nn1 (stereo not drawn) [Example 97, 1-[6-[5-[(6-Methylpyridazin-3-yl)amino]benzimidazol-1-yl]-2-[3-(trifluoromethyl)-4,5,6,7-tetrahydropyrazolo[4,3-c]pyridin-1-yl]-3-pyridyl]ethanol] | 0.5 nM | 0.2 nM | 7 nM
18 | Cc1ccc(Nc2ccc3ncn(-c4ccc(C(C)O)c(-n5nc(C(F)(F)F)c6c5CCNC6)n4)c3c2)nn1 (stereo not drawn) [Example 98, 1-[6-[6-[(6-Methylpyridazin-3-yl)amino]benzimidazol-1-yl]-2-[3-(trifluoromethyl)-4,5,6,7-tetrahydropyrazolo[4,3-c]pyridin-1-yl]-3-pyridyl]ethanol] | 13.4 nM | 4.2 nM | 5 nM
19 | Cc1nnc(Nc2ccc3c(c2)ncn3-c2ccc(C(C)O)c(-n3nc(C#N)cc3C)n2)o1 (stereo not drawn) [Example 103, 1-[3-(1-Hydroxyethyl)-6-[5-[(5-methyl-1,3,4-oxadiazol-2-yl)amino]benzimidazol-1-yl]-2-pyridyl]-5-methyl-pyrazole-3-carbonitrile] | 17.5 nM | 28.8 nM | 35 nM
